In patent US20120179381A1, “TOXICITY SCREENING METHODS” (priority 2010, published 2012):

Experiments:
[1] = tested on: primary hepatocytes in sandwich culture; assay: Liver specific toxicity assays in primary hepatocytes in sandwich culture (GSH, mitochondria, oxidative stress, GGT); type: cell-based; conditions: FIG. 11
Description: (§1) Cell Culture: Primary hepatocytes in sandwich culture were obtained freshly-plated from outside vendors and used to assess general liver toxicity. Hepatocytes were plated in 24-well or 96-well microplates at a density of 400 K/well and 100 K/well, respectively, and kept at 37° C., 5% CO2 in a humidified incubator. Sandwich culture plates have a collagen substratum with Matrigel overlay, optimal growth conditions for hepatocytes with intact and functional bile canalicular networks. After 3 days in culture, cells were shipped to the inventor. Upon receipt, medium was replaced with fresh Williams E medium (Sigma) containing 10% bovine serum (Invitrogen), and cells were acclimated overnight prior to treatment (Hewitt et al. 2007).
(§2) Cytotoxicity: ATP was measured using an ATP-Lite kit from Perkin Elmer according to the manufacturer's instructions. Membrane integrity was monitored by determining the presence of α-Glutathione S-transferase (α-GST), released into the culture medium using an ELISA assay (Argutus Medical). Intracellular glutathione levels were determined essentially as described by Griffith (1980) with modifications. Cell mass in each well was measured with propidium iodide (PI). This specific nucleic acid binding dye fluoresces when intercalated within the nucleic acids. After incubation, the test compound was removed by aspiration of the media and Triton X-100 solution containing propidium iodide was added to permeabilized cells.
8-ISO levels were determined using an ELISA. 8-ISO is a member of a family of eicosanoids produced non-enzymatically by random oxidation of tissue phospholipids by oxygen radicals. Therefore, an increase in 8-ISO is an indirect measure of increased lipid peroxidation (Vacchiano and Tempel, 1994).
γ-Glutamyltransferase (GGT) activity was measured using the Catachem GGT kit with modifications. After completion of exposures, media was removed from the plates and cell and cell supernatants were stored at −80° C. until analyzed.

OCT2 = OCT2 (Sus scrofa, UniProt O02713); conditions: Cimetidine at 500 μM or 1 mM; LLC-PK1 cell model; FIG. 4
Description: (§3) Cell Culture: Two cell types were used in this Example—primary human renal proximal tubule cells (hRPTCs) and a well characterized porcine renal proximal tubule (LLC-PK1) cell line. The hRPTCs were obtained from Lonza, Clonetics (Walkersville, Md.) and the LLC-PK1 was obtained from ATCC.
(§4) Establishing Transwell Cultures: The hRPTCs were seeded into Corning transwell-COL 24-well tissue culture plates at a density of 7.4×10^4 cells/well. LLC-PK1 cells were seeded into BD 351181 transwell 24-well tissue culture plates at a cell density of 1.65×10^5 cells/well (FIG. 3). On day 6 of incubation, formation of tight-junctions between cells was determined by Lucifer Yellow and Mannitol. The growth medium used with the hRPTCs was modified DMEM/Ham's F-12, and the medium used for LLC-PK1 was DMEM with 10% FBS (Elwi et al. 2009; Morshed and McMartin, 1995).
(§5) Transport Assays: To determine transporter specific activity, several known substrates were selected: TEA (OCT1 and OCT2), Digoxin (OATP4C1), Metformin (OCT2 basolateral and MATE1 apical). LLC-PK1 cells were seeded in BD 351181 24-well tissue culture plates at a cell density of 1.65×10^5 cells/well. After culturing for 6 days, apical and basolateral chambers were washed at room temperature with D-PBS buffer (containing 137 mM NaCl, 3 mM KCl, 8 mM Na2HPO4, 1.5 mM KH2PO4, 1 mM CaCl2, 0.5 mM MgCl2 and 5 mM D-glucose; pH 7.4) then incubated with non-radiolabeled substrate on both apical and basolateral sides for 60 minutes. Media was removed and the cells rinsed with buffer prior to adding the radiolabeled substrate. Radiolabeled substrate (with or without inhibitor) was added to apical or basolateral chambers, and samples were collected from the opposite side at 40 minutes. Cellular uptake was determined by washing the transwell membranes containing the cells twice with ice-cold D-PBS, then transferring the insert with cells to scintillation vials containing 2% Triton X-100. Scintillation was counted using Opti-Flour (Perkin Elmer) and in a Packard Tri-Carb 2100TR liquid scintillation counter.

hOCT2 = hOCT2 (Homo sapiens, UniProt O15244); conditions: hRPTCs; FIG. 4
Description: as §3, §4, §5

CYP3A = assay: Inhibition of CYP3A; type: in vitro ADME; conditions: Table 2; number or Y/N, unit inferred
[2] = tested on: primary hepatocytes in sandwich culture; Rat (H4IIE) cells; assay: General cell health / mitochondrial function (ATP) cytotoxicity assays of the liver toxicity screen; type: cell-based; conditions: for IC50: Rattus norvegicus, H4IIE, Table 2, unit inferred
Description: as §1
Rat (H4IIE) cells were seeded in flat bottom 96-well plates at a density of 10,000 cells/well in Eagles Minimum Essential Medium (Sigma Chemical) supplemented with 10% bovine serum and 10% calf serum (Invitrogen). Cells were allowed to equilibrate for approximately 48 hours to allow cells to move into a stable growth phase prior to treatment.
as §2

BSEP [3] = target: T1, BSEP (UniProt O95342, species not given); assay: BSEP cell-free transport assay; type: biochemical, Rat or human; conditions: BSEP cell-free transport assay (GenoMembrane); Table 2; number or Y/N for inhibition, unit inferred
T1 construct: rows headed: BSEP
Description: (§6) Rat or human BSEP cell-free assay were performed according to GenoMembrane protocol for BSEP transport analysis.

[4] = Table 2; Y/N; cited from earlier work
hRPTC = assay: Cisplatin cytotoxicity in primary human renal proximal tubule cells (ATP, cell number, membrane integrity, GGT); type: cell-based; conditions: FIG. 6, read-out: IC50 for ATP depletion
Description: Cytotoxicity: Cell viability was determined by measuring intracellular ATP levels with ATP-Lite from Perkin Elmer according to the manufacturer's instructions. Cell proliferation was determined from bromodeoxyuridine (BrdU) incorporation. Membrane integrity was measured using glutathione S-transferase (GST) as a leakage marker (Argutus). The GST assay was done according to the manufacturer's instructions. Gamma-glutamyl transferase activity (GGT) was measured using the Catachem GGT kit with modifications.

BSEP [5] = assay: BSEP cell-free transport assay; type: biochemical, Rat or human; conditions: Table 2; number or Y/N for inhibition, unit not given
Description: as §6

[6] = tested on: primary hepatocytes in sandwich culture; Rat (H4IIE) cells; assay: Intracellular glutathione (GSH) levels, liver toxicity screen; type: cell-based; conditions: FIG. 12, read-out: depleting intracellular glutathione levels, IC50
Description: as §1, with “2007). […]” for “2007).”
Cytotoxicity: ATP was measured using an ATP-Lite kit from Perkin Elmer according to the manufacturer's instructions. Membrane integrity was monitored by determining the presence of α-Glutathione S-transferase (α-GST), released into the culture medium using an ELISA assay (Argutus Medical). Intracellular glutathione levels were determined essentially as described by Griffith (1980) with modifications. Cell mass in each well was measured with propidium iodide (PI). […]

Chain of OCT2 (O02713 whole entry): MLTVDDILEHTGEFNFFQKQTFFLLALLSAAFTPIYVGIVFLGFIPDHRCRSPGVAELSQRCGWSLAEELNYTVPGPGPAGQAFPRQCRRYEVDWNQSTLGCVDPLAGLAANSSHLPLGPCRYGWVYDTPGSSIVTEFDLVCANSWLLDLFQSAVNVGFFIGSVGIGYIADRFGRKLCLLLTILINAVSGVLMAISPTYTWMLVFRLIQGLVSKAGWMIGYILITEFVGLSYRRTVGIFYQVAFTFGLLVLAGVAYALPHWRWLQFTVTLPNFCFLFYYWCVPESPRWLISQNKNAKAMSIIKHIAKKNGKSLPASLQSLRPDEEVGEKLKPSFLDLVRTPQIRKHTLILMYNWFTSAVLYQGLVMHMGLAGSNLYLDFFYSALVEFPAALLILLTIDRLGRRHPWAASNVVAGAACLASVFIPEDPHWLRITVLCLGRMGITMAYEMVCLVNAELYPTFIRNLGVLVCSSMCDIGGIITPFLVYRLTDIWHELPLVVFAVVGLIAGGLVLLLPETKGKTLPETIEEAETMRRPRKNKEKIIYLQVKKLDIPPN
Chain of hOCT2 (O15244 whole entry): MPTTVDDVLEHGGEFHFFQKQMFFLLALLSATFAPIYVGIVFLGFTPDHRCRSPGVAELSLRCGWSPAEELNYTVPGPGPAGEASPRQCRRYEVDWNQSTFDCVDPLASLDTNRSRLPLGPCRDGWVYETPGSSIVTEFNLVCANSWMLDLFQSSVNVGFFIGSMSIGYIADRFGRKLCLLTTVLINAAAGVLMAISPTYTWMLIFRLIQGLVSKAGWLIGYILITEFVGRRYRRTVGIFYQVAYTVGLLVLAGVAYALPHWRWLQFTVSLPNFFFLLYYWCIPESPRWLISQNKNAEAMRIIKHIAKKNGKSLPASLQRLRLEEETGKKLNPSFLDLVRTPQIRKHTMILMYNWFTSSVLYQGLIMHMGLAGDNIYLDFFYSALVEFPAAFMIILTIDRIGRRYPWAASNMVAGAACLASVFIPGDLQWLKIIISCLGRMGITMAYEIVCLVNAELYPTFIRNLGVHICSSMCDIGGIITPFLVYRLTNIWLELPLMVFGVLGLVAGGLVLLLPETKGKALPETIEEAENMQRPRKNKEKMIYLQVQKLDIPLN

For S=C=Nc1cccc2ccccc12 [ANIT, α-naphthyl-isothiocyanate], the “canalicular membrane integrity (GGT release)” value [1] was “damaged”, the glutathione [1] was “decreased” and the mitochondria [1] was “disrupted”. The oxidative stress [1] was “increased”.

For CN/C(=N/CCSCc1nc[nH]c1C)NC#N [Cimetidine], the “basolateral to apical flux (metformin), effect of inhibitor” value (OCT2) was “inhibited”, the “cellular uptake (metformin), effect of inhibitor” value (OCT2) was “inhibited” and the “basolateral-to-apical flux (metformin), effect of inhibitor” value (hOCT2) was “not inhibited”. For the same compound, the “cellular uptake (metformin), effect of inhibitor” value (hOCT2) was “inhibited”.

With CCC(C)n1ncn(-c2ccc(N3CCN(c4ccc(OCC5COC(Cn6cncn6)(c6ccc(Cl)cc6Cl)O5)cc4)CC3)cc2)c1=O (stereo not shown) [Itraconazole] the IC50 (CYP3A) was 2.3 µM and the IC50 [2] was 150 µM.

For CCc1ccc(CCOc2ccc(CC3SC(=O)NC3=O)cc2)nc1 (stereo not shown) [Pioglitazone], the IC50 (BSEP [3]) is given as 5 µM, the IC50 [2] is given as > 300 µM and the “Clin Cholestatic” value [4] is given as “Y-reversible”.

For CN(CCOc1ccc(CC2SC(=O)NC2=O)cc1)c1ccccn1 (stereo not shown) [Rosiglitazone], the IC50 (BSEP [3]) was 8 µM and the IC50 [2] was > 300 µM.

In the case of N.N.[Cl][Pt][Cl] [cisplatin], the IC50 (hRPTC) is reported as ~80 µM.

In the case of CCc1nn(CCCN2CCN(c3cccc(Cl)c3)CC2)c(=O)n1CCOc1ccccc1 [nefazodone], the BSEP (BSEP [5]) is reported as “inhibition”, the IC50 [6] is reported as < 50 µM and the “general cell health, toxicity relative to the other non-tricyclic antidepressants” value ([2]; FIG. 12, comparison of three non-tricyclic antidepressants) is reported as “most toxic”.
